Columns and labels:
[1] = target: T1, Kinesin-like protein KIF15 (Homo sapiens) (UniProt Q9NS87); assay: Inhibition of recombinant His6-tagged Kif15 (N700 residues) (unknown origin) expressed in HeLa cells assessed as reduction in Alexa-594 labelled microtubule gliding at 750 nM measured every 2 secs for 20 secs by epifluorescence microscopic analysis (reference value: 1%); assay type: cell-based
T1 sequence (whole entry): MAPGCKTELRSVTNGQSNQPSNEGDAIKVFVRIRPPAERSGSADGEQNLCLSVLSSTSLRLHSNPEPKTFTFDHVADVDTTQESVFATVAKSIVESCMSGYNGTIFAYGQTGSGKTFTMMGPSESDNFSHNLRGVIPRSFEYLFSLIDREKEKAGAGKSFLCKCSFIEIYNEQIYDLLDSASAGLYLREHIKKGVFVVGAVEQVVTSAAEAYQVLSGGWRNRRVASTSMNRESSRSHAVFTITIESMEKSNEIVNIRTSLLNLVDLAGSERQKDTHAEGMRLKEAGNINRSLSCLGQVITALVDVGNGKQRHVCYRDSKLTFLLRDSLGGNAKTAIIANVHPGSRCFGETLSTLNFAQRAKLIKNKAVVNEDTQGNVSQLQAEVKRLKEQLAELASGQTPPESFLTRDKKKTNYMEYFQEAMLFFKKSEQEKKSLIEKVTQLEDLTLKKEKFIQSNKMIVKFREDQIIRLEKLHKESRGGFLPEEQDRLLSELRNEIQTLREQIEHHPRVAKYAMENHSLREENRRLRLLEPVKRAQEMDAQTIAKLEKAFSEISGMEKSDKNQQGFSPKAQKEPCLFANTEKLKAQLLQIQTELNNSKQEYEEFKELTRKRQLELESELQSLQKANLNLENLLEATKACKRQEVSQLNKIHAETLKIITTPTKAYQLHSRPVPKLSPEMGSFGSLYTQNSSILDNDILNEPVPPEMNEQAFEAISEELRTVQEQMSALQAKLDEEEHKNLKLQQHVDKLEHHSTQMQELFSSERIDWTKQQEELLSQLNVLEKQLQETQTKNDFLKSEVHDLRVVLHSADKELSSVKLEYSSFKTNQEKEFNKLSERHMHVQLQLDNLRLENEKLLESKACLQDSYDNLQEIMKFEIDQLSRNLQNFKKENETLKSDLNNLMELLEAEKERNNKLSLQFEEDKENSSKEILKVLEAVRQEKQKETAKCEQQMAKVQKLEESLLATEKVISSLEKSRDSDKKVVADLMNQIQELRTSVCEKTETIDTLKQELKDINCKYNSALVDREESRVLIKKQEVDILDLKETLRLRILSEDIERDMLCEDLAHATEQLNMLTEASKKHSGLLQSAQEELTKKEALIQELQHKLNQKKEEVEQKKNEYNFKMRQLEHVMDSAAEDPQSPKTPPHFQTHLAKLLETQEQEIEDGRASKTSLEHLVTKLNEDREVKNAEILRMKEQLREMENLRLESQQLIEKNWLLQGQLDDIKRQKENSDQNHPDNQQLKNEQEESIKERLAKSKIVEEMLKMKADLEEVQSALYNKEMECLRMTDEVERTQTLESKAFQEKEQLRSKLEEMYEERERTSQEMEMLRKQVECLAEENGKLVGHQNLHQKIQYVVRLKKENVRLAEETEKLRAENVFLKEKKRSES

[2] = target: T1, Kinesin-like protein KIF15 (Homo sapiens); assay: Inhibition of Kif15 in TP53-deficient human RPE1 cells assessed as cells with bipolar pre-anaphase microtubule structure at 25 uM after 24 hrs by Hoechst 33342 staining based immunofluorescence microscopic analysis (reference value: 90 to 94%); parameters: scale not given: the % may be the effect or the level left
[3] = target: T2, Kinesin-like protein KIF11 (Homo sapiens) (UniProt P52732); assay: Inhibition of Eg5 (unknown origin) assessed as reduction in Alexa-594 labelled microtubule gliding at 30 uM measured every 2 secs for 20 secs by epifluorescence microscopic analysis relative to control
T2 sequence (whole entry): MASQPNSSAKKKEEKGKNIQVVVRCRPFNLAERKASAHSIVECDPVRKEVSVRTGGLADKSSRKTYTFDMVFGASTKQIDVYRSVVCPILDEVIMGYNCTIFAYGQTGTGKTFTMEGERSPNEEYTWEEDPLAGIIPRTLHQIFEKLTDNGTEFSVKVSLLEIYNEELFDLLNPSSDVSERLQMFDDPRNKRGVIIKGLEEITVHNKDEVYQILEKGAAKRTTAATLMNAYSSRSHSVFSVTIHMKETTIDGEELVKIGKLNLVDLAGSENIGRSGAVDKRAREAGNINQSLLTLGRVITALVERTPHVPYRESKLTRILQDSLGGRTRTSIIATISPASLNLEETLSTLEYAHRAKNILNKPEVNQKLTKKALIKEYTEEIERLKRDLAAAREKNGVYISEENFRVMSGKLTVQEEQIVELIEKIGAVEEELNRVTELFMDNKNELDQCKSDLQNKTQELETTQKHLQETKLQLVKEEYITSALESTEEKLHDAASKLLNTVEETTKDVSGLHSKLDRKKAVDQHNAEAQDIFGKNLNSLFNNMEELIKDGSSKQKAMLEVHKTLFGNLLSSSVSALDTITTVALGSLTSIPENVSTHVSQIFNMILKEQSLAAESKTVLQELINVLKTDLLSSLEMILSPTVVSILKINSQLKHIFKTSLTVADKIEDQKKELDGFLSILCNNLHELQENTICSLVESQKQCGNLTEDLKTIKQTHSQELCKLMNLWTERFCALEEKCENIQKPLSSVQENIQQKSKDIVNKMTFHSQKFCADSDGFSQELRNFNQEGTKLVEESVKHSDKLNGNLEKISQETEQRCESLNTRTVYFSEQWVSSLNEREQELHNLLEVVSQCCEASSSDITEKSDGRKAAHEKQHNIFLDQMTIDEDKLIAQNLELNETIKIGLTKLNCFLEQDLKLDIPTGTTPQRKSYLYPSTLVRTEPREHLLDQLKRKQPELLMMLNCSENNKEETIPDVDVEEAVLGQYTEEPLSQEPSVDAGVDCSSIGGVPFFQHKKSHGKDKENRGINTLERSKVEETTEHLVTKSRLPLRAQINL

O=C1Nc2ccc(C(=O)c3ccco3)cc2/C1=C/c1cc(Cl)c(O)c(Cl)c1
inhibition [1]: 49% | Activity [2]: 84% | inhibition [3]: 19.8%

— ChEMBL document CHEMBL4371054, “Dual inhibition of Kif15 by oxindole and quinazolinedione chemical probes” (Bioorg Med Chem Lett, 2019)
